Measured values from PMC10999543, “Identification of kinase modulators as host-directed therapeutics against intracellular methicillin-resistant Staphylococcus aureus” (Frontiers in Cellular and Infection Microbiology, 2024).
Read-outs that look alike come from different tables or passages of the source.

Columns and labels:
[1] = system: intracellular MRSA; assay type: cell-based, Staphylococcus aureus; conditions: for %GFP+ rep 1 / z-scoreMRSA+ rep 1: replicate 1; for %GFP+ rep 2 / z-scoreMRSA+ rep 2: replicate 2; for %GFP+ rep 3 / z-scoreMRSA+ rep 3: replicate 3; for z-scoreMRSA+ mean: mean of 3 replicates
Outline: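 HeLa cells infected with GFP-MRSA (MOI ~6.8), gentamicin-cleared, then incubated overnight at 37°C with inhibitors plus 5 µg/ml gentamicin; DMSO as negative control, triplicates. Flow cytometry gave % GFP-positive cells and cell count (viability surrogate); hits by plate z-score (MRSA ≤ -2, HeLa count ≥ -3).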

[2] = system: HeLa cells; assay: Compound screen by flow cytometry: HeLa cell count as surrogate readout of cell viability (z-scoreHeLa); assay type: cell-based, human; conditions: for cell count rep 1 / z-scoreHeLa rep 1: replicate 1; for cell count rep 2 / z-scoreHeLa rep 2: replicate 2; for cell count rep 3 / z-scoreHeLa rep 3: replicate 3; for z-scoreHeLa mean: mean of 3 replicates
Outline: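 HeLa cells were infected with GFP-MRSA (mean MOI 6.8 ± 4.6) for 1 h, and extracellular bacteria were killed with 30 µg/ml gentamicin. Cells were then incubated overnight with kinase inhibitors in 5 µg/ml gentamicin, in triplicate against DMSO controls. Flow-cytometric cell count served as a viability surrogate, expressed as a plate z-score.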

[3] = PKIS compounds raw data, MRSA-infected HeLa cells
[4] = Yes/No: effect without cell death
[5] = compound screen, MRSA-infected HeLa cells
[6] = PKIS compounds raw data, HeLa cell count
[7] = compound screen, HeLa cell count
[8] = PKIS compound screen raw data, MRSA-infected HeLa cells
[9] = PKIS compound screen, MRSA-infected HeLa cells
[10] = PKIS compound screen, Yes/No call (effect without cell death)
[11] = PKIS compound screen, Yes/No call on z-scoreMRSA+
[12] = PKIS compound screen raw data, HeLa cell count
[13] = PKIS compound screen, HeLa cell count
[14] = PKIS compound screen, Yes/No call on z-scoreHeLa
[15] = PKIS compound screen, Yes/No call

Cc1n[nH]c2cc(Nc3ccnc(Nc4cccc(CN5CCOCC5)c4)n3)ccc12 [GW682569X]
%GFP+ rep 1 [1, 3]: 15.4% | %GFP+ rep 2 [1, 3]: 15.0% | %GFP+ rep 3 [1, 3]: 13.7% | effect ([1]; Yes/No call from z-scoreMRSA+): No | hit [1, 4]: No | z-scoreMRSA+ mean [1, 5]: 0.19 | z-scoreMRSA+ rep 1 [1, 5]: 0.71 | z-scoreMRSA+ rep 2 [1, 5]: 0.50 | z-scoreMRSA+ rep 3 [1, 5]: -0.65 | cell count rep 1 [2, 6]: 2071 | cell count rep 2 [2, 6]: 1754 | cell count rep 3 [2, 6]: 4807 | cell death ([2]; Yes/No call from z-scoreHeLa): No | z-scoreHeLa mean [2, 7]: -1.79 | z-scoreHeLa rep 1 [2, 7]: -2.45 | z-scoreHeLa rep 2 [2, 7]: -1.90 | z-scoreHeLa rep 3 [2, 7]: -1.03

CN(c1ccc2c(c1)nc(NCc1ccc(F)cc1)n2C)c1ccnc(Nc2ccc(CS(C)(=O)=O)cc2)n1 [GW813244A]
%GFP+ rep 1 [1, 8]: 19.9% | %GFP+ rep 2 [1, 8]: 20.6% | %GFP+ rep 3 [1, 8]: 22.3% | z-scoreMRSA+ mean [1, 9]: 0.68 | z-scoreMRSA+ rep 1 [1, 9]: 0.65 | z-scoreMRSA+ rep 2 [1, 9]: 0.62 | z-scoreMRSA+ rep 3 [1, 9]: 0.76 | hit [1, 10]: No | effect [1, 11]: No | cell count rep 1 [2, 12]: 29228 | cell count rep 2 [2, 12]: 26803 | cell count rep 3 [2, 12]: 36349 | z-scoreHeLa mean [2, 13]: -0.26 | z-scoreHeLa rep 1 [2, 13]: 1.38 | z-scoreHeLa rep 2 [2, 13]: -1.49 | z-scoreHeLa rep 3 [2, 13]: -0.67 | cell death [2, 14]: No

Cn1cc(-c2ccc3c(c2)CCN3C(=O)Cc2cc(F)cc(F)c2F)c2c(N)ncnc21 [GSK2634140A]
%GFP+ rep 1 [1, 8]: 26.0% | %GFP+ rep 2 [1, 8]: 26.7% | %GFP+ rep 3 [1, 8]: 24.3% | effect ([1]; Yes/No call from z-scoreMRSA+): No | hit [1, 4]: No | z-scoreMRSA+ mean [1, 5]: 0.60 | z-scoreMRSA+ rep 1 [1, 5]: 0.17 | z-scoreMRSA+ rep 2 [1, 5]: 0.99 | z-scoreMRSA+ rep 3 [1, 5]: 0.63 | cell count rep 1 [2, 12]: 2359 | cell count rep 2 [2, 12]: 2548 | cell count rep 3 [2, 12]: 2693 | cell death ([2]; Yes/No call from z-scoreHeLa): No | z-scoreHeLa mean [2, 7]: -1.47 | z-scoreHeLa rep 1 [2, 7]: -1.44 | z-scoreHeLa rep 2 [2, 7]: -1.35 | z-scoreHeLa rep 3 [2, 7]: -1.61

Cc1n[nH]c2ccc(-c3cc(OC[C@@H](N)Cc4ccccc4)cnc3-c3ccoc3)cc12 [GSK507358A]
effect [1, 15]: No | hit [1, 10]: No | z-scoreMRSA+ mean ([1]; PKIS compound screen): -1.58 | z-scoreMRSA+ rep 1 ([1]; PKIS compound screen): -1.88 | z-scoreMRSA+ rep 2 ([1]; PKIS compound screen): -1.31 | z-scoreMRSA+ rep 3 ([1]; PKIS compound screen): -1.55 | %GFP+ rep 1 [1, 3]: 17.4% | %GFP+ rep 2 [1, 3]: 19.2% | %GFP+ rep 3 [1, 3]: 18.9% | cell death [2, 15]: No | z-scoreHeLa mean ([2]; PKIS compound screen): 1.21 | z-scoreHeLa rep 1 ([2]; PKIS compound screen): 1.04 | z-scoreHeLa rep 2 ([2]; PKIS compound screen): 1.55 | z-scoreHeLa rep 3 ([2]; PKIS compound screen): 1.04 | cell count rep 1 [2, 6]: 7770 | cell count rep 2 [2, 6]: 8336 | cell count rep 3 [2, 6]: 7240

O=C(Nc1n[nH]c2cc(-c3ccsc3)ccc12)C1CC1 [SB-732932]
%GFP+ rep 1 [1, 3]: 25.2% | %GFP+ rep 2 [1, 3]: 22.2% | %GFP+ rep 3 [1, 3]: 22.6% | effect ([1]; Yes/No call from z-scoreMRSA+): No | hit [1, 4]: No | z-scoreMRSA+ mean [1, 5]: 0.001 | z-scoreMRSA+ rep 1 [1, 5]: -0.0173 | z-scoreMRSA+ rep 2 [1, 5]: -0.10 | z-scoreMRSA+ rep 3 [1, 5]: 0.12 | cell count rep 1 [2, 6]: 6278 | cell count rep 2 [2, 6]: 6296 | cell count rep 3 [2, 6]: 8200 | cell death ([2]; Yes/No call from z-scoreHeLa): No | z-scoreHeLa mean [2, 7]: 1.60 | z-scoreHeLa rep 1 [2, 7]: 1.39 | z-scoreHeLa rep 2 [2, 7]: 1.54 | z-scoreHeLa rep 3 [2, 7]: 1.87

Cc1nc(-c2ccccc2)n2nc(NCCCN3CCOCC3)ncc12 [GW874091X]
effect [1, 15]: No | hit [1, 10]: No | z-scoreMRSA+ mean ([1]; PKIS compound screen): 0.31 | z-scoreMRSA+ rep 1 ([1]; PKIS compound screen): 0.36 | z-scoreMRSA+ rep 2 ([1]; PKIS compound screen): 0.54 | z-scoreMRSA+ rep 3 ([1]; PKIS compound screen): 0.0338 | %GFP+ rep 1 [1, 3]: 14.3% | %GFP+ rep 2 [1, 3]: 15.1% | %GFP+ rep 3 [1, 3]: 16.0% | cell death [2, 15]: No | z-scoreHeLa mean ([2]; PKIS compound screen): -0.73 | z-scoreHeLa rep 1 ([2]; PKIS compound screen): -1.54 | z-scoreHeLa rep 2 ([2]; PKIS compound screen): -0.37 | z-scoreHeLa rep 3 ([2]; PKIS compound screen): -0.27 | cell count rep 1 [2, 6]: 3071 | cell count rep 2 [2, 6]: 3785 | cell count rep 3 [2, 6]: 6390

COc1ccc(Nc2nccc(N3CCC(NC(=O)Nc4cccc(OC)c4)C3)n2)cc1 (centres unmarked) [GSK1379742A]
%GFP+ rep 1 [1, 8]: 17.9% | %GFP+ rep 2 [1, 8]: 19.2% | %GFP+ rep 3 [1, 8]: 19.1% | z-scoreMRSA+ mean [1, 9]: 0.00235 | z-scoreMRSA+ rep 1 [1, 9]: 0.0133 | z-scoreMRSA+ rep 2 [1, 9]: 0.20 | z-scoreMRSA+ rep 3 [1, 9]: -0.21 | effect [1, 15]: No | hit [1, 10]: No | effect [1, 11]: No | z-scoreMRSA+ mean ([1]; PKIS compound screen): 0.33 | z-scoreMRSA+ rep 1 ([1]; PKIS compound screen): -0.05 | z-scoreMRSA+ rep 2 ([1]; PKIS compound screen): 0.88 | z-scoreMRSA+ rep 3 ([1]; PKIS compound screen): 0.15 | %GFP+ rep 1 [1, 3]: 26.8% | %GFP+ rep 2 [1, 3]: 30.6% | %GFP+ rep 3 [1, 3]: 28.1% | cell count rep 1 [2, 12]: 25651 | cell count rep 2 [2, 12]: 33132 | cell count rep 3 [2, 12]: 39377 | z-scoreHeLa mean [2, 13]: 0.12 | z-scoreHeLa rep 1 [2, 13]: 0.84 | z-scoreHeLa rep 2 [2, 13]: -0.31 | z-scoreHeLa rep 3 [2, 13]: -0.18 | cell death [2, 15]: No | cell death [2, 14]: No | z-scoreHeLa mean ([2]; PKIS compound screen): 1.53 | z-scoreHeLa rep 1 ([2]; PKIS compound screen): 1.56 | z-scoreHeLa rep 2 ([2]; PKIS compound screen): 0.68 | z-scoreHeLa rep 3 ([2]; PKIS compound screen): 2.36 | cell count rep 1 [2, 6]: 8641 | cell count rep 2 [2, 6]: 7027 | cell count rep 3 [2, 6]: 9326

COc1cc(Nc2ncc(-c3ccccc3)o2)cc(OC)c1OC [GW627512B]
%GFP+ rep 1 [1, 3]: 11.0% | %GFP+ rep 2 [1, 3]: 12.1% | %GFP+ rep 3 [1, 3]: 12.6% | effect ([1]; Yes/No call from z-scoreMRSA+): No | hit [1, 4]: No | z-scoreMRSA+ mean [1, 5]: -0.71 | z-scoreMRSA+ rep 1 [1, 5]: -0.70 | z-scoreMRSA+ rep 2 [1, 5]: -0.47 | z-scoreMRSA+ rep 3 [1, 5]: -0.97 | cell count rep 1 [2, 6]: 2360 | cell count rep 2 [2, 6]: 2993 | cell count rep 3 [2, 6]: 4653 | cell death ([2]; Yes/No call from z-scoreHeLa): No | z-scoreHeLa mean [2, 7]: -1.42 | z-scoreHeLa rep 1 [2, 7]: -2.18 | z-scoreHeLa rep 2 [2, 7]: -0.96 | z-scoreHeLa rep 3 [2, 7]: -1.10

CCCNC(=O)Nc1ccc(N(C)c2ccnc(NC3CC3)n2)cc1 [GW818933X]
%GFP+ rep 1 [1, 8]: 16.2% | %GFP+ rep 2 [1, 8]: 17.1% | %GFP+ rep 3 [1, 8]: 17.2% | z-scoreMRSA+ mean [1, 9]: -0.81 | z-scoreMRSA+ rep 1 [1, 9]: -0.69 | z-scoreMRSA+ rep 2 [1, 9]: -0.63 | z-scoreMRSA+ rep 3 [1, 9]: -1.10 | effect [1, 15]: No | hit [1, 10]: No | effect [1, 11]: No | z-scoreMRSA+ mean ([1]; PKIS compound screen): 0.11 | z-scoreMRSA+ rep 1 ([1]; PKIS compound screen): 0.16 | z-scoreMRSA+ rep 2 ([1]; PKIS compound screen): 0.22 | z-scoreMRSA+ rep 3 ([1]; PKIS compound screen): -0.07 | %GFP+ rep 1 [1, 3]: 27.9% | %GFP+ rep 2 [1, 3]: 27.2% | %GFP+ rep 3 [1, 3]: 26.9% | cell count rep 1 [2, 12]: 29169 | cell count rep 2 [2, 12]: 27486 | cell count rep 3 [2, 12]: 16622 | z-scoreHeLa mean [2, 13]: -0.08 | z-scoreHeLa rep 1 [2, 13]: -0.17 | z-scoreHeLa rep 2 [2, 13]: 0.38 | z-scoreHeLa rep 3 [2, 13]: -0.45 | cell death [2, 15]: No | cell death [2, 14]: No | z-scoreHeLa mean ([2]; PKIS compound screen): 0.64 | z-scoreHeLa rep 1 ([2]; PKIS compound screen): 0.56 | z-scoreHeLa rep 2 ([2]; PKIS compound screen): 0.63 | z-scoreHeLa rep 3 ([2]; PKIS compound screen): 0.73 | cell count rep 1 [2, 6]: 6971 | cell count rep 2 [2, 6]: 6954 | cell count rep 3 [2, 6]: 6744
